Experiments:
[1] = system: dorsal skin of UV-irradiated SKH-1 hairless mice; test: Wrinkle evaluation of dorsal skin of UV-irradiated hairless mice (visual grade, negative replica); type: in vivo, mouse; conditions: UV 8 weeks, 5 mg/kg daily oral; for visual wrinkle grade: clinical images rated by two practitioners; for wrinkle area in replicated images: compared to the control group; for thickness of wrinkles of dorsal skin: compared with the control group
Procedure: (§1) In order to irradiate animals with UV, the minimal erythema dose (MED) of the dorsal skin of mice was examined first. Minimal erythema dose means the minimum amount of erythema that can be derived with a clear border after 24 hours of irradiation. The mice were irradiated three times a week for 8 weeks with UV. During the first 3 weeks, the dose was increased by 1 MED (herein, 1 MED=30 mJ/cm2), and then 3 MED was maintained thereafter.
(§2) Premature female SKH-1 hairless mice were purchased from Charles River Laboratories (Wilmington, Mass.) and adapted for one week. The mice were housed in air-conditioned rooms in a 12-hour light/12-hour dark cycle to allow them to eat water and food freely. The room temperature was maintained at 23±3° C. and under humidity at 55±15%. All experiments were approved by the Animal Care and Use Committee at Gwangju Institute of Science and Technology.
(§3) After the adaptation period, mice were divided into 4 groups of 6 mice per each group. Each of the groups was as follows:
(c) Group of receiving 5 mg/kg daily chlorophyll a with UV irradiation
(d) Group of receiving 5 mg/kg pheophorbide a daily with UV irradiation
(§4) Chlorophyll a (Ca, Sigma-Aldrich, St Louis, Mo., USA) or pheophorbide a (Pa, Frontier Scientific, Logan, Utah, USA) was dissolved in a solution of 40% polyethylene glycol 400 (Sigma-Aldrich, St Louis, Mo., USA), respectively. As a control, vehicle was prepared with only 40% polyethylene glycol 400 solution and administered to mice in the negative control and positive control groups. The administration of test materials was made immediately after UV irradiation.
A digital camera (Sony Cybershot DSC-W570, 5× optical zoom, 16.1 megapixels, Sony Corporation, Tokyo, Japan) was used to obtain a clinical image of the dorsal skin after continuous exposure to low dose UV. The enlarged wrinkles were obtained using DermLite®IIHybridM (3Gen, LLC, San Juan Capistrano, Calif., USA) attached to the digital camera. The wrinkles of the dorsal skin of the mice were graded according to the method described by Bissett et al.. The grades were as follows:
Grade 0—no thick wrinkles;
Grade 1—a few shallow thick wrinkles;
Grade 2—some thick wrinkles;
Grade 3—multiple deep thick wrinkles.
A negatively imprinted replica was used to analyze the wrinkles of the skin, which is described by Ryu et al.. That is, a semi-fluidic silicone polymer was mixed with a catalyst (Imprint II Garant™ Light Body, 3M) and then applied to a dorsal skin sufficiently to penetrate into the wrinkles beyond a contour. This replica was analyzed under standard illumination with an incident angle where the replica was formed and set to produce a reflective shadow proportional to the height of the wrinkles. The captured images were analyzed from a shadow region in the images using image analysis software (ImageJ software, NIH Image, National Institutes of Health, Bethesda, Md., USA; online at: http://rsb.info.nih.gov/ij/).

[2] = system: dorsal skin of UV-irradiated SKH-1 hairless mice; test: Histological examination of dorsal skin of UV-irradiated mice (H&E, Masson-trichrome); type: in vivo, mouse; conditions: 5 mg/kg daily oral; for collagen breakdown in the dermis / infiltration of inflammatory cells in the epidermis and upper dermis: compared with the control group; for infiltration of inflammatory cells in the epidermis and upper dermis: H&E stain; for thickness of the epidermis: Masson-trichrome staining
Procedure: as §1, §2, §3, §4
Tissue samples taken from the dorsal skin of UV-irradiated mice were fixed in 4% paraformaldehyde and then included in paraffin. Thin sections with a thickness of 4 μm were stained with hematoxylin and eosin solution. To visualize collagen deposition, the sections were stained with Accustain trichrome stain (Sigma-Aldrich, St. Louis, Mo., USA). The epidermal thickness from a junction of the granular keratocytes to a junction of the dermis-epidermis was measured using an i-Solution DT image acquisition and analysis program (IMT 20 i-solution, Vancouver, Canada) and a Leica microscope (Leica, Wetzlar, Germany). To assess the thickness of the epidermis, any of the ten sites on the slide were measured. In […], inflammatory cells from epidermis to subcutaneous fat layer were calculated.

[3] = system: intercellular adhesion molecule-1 (ICAM-1); test: Immunohistochemical staining for ICAM-1 in dorsal skin of UV-irradiated mice; type: in vivo, mouse; conditions: 5 mg/kg daily oral, compared with the UV-only-irradiated group
Procedure: as §1, §2, §3
Chlorophyll a (Ca, Sigma-Aldrich, St Louis, Mo., USA) or pheophorbide a (Pa, Frontier Scientific, Logan, Utah, USA) was dissolved in a solution of 40% polyethylene glycol 400 (Sigma-Aldrich, St Louis, Mo., USA), respectively. As a control, vehicle was prepared with only 40% polyethylene glycol 400 solution and administered to mice in the negative control and positive control groups. […]

[4] = system: human dermal fibroblast (hDF) cells; test: Cell viability assay (water soluble tetrazolium) in UV-irradiated hDF cells; type: cell-based; conditions: UV 20 mJ/cm2, 0, 10, 20, 50 μM, 72 hours in the absence of light
Procedure: (§5) The primary human dermal fibroblast (hDF) cell line was obtained from Chonnam National University Medical School (Gwangju, Republic of Korea). The cells were cultured at 37° C. and under 5% CO2 using Dulbecco's Modified Eagle's Medium (DMEM, Gibco Laboratories, Grand Island, N.Y., USA) supplemented with 5% fetal bovine serum (Gibco Laboratories, Grand Island, N.Y., USA) and 1% penicillin (100 units/ml)/streptomycin ([…]).
(§6) Philips TL 20W/12 RS fluorescent sun lamp with emission spectra of 280 nm and 380 nm was used as an UV source. The UV intensity at the skin surface was measured using a UV detector (GUVx-T1xGS5-LA2, Genicom Daejeon, Korea). The UV irradiation intensity was 1.0 mW/cm2 at 30 cm from the UV source. The cells were cultured up to 75-80% of culture dish, washed twice with PBS buffer, and irradiated with UV to treat test materials. Thereafter, the cells were continuously cultured in the absence of light until the next analysis.
A water soluble tetrazolium test method was used for cell viability analysis. Quantification of living cells was performed using a […] Ez-cytox Cell Viability Assay Kit (Daeil Lab Co, Seoul, Korea). The formazan dye was analyzed spectrophotometrically by measuring the absorbance at 450 nm using a Chameleon multi-label plate reader (Hidex Personal Life Science, Hidex Oy, Finland). […]

MMP-1 [5] = test: Real-time RT-PCR of MMP-1 mRNA in UV-irradiated hDF cells; type: cell-based, human; conditions: cultured 24 hours, relative to GAPDH
Procedure: as §5, §6
(§7) Total RNA was isolated using a Trizol reagent (Invitrogen, Carlsbad, Calif., USA) according to the manufacturer's instructions. […] For the detection of fluorescence during the PCR amplification, SYBR Premix Ex Taq (Takara Bio, Otsu, Japan) was used. […]
(§8) In addition, UV was irradiated, the test materials were treated, cultured for 24 hours, and then the mRNA level of MMPs was analyzed using a real time RT PCR method. […]

MMP-3 [6] = test: Real-time RT-PCR of MMP-3 mRNA in UV-irradiated hDF cells; type: cell-based, human; conditions: cultured 24 hours, relative to GAPDH
Procedure: as §5, §6, §7, §8

MMP-1 [7] = test: Western blotting of MMP-1 protein in UV-irradiated hDF cells; type: cell-based, human; conditions: various concentrations
Procedure: as §5
(§9) Philips TL 20W/12 RS fluorescent sun lamp with emission spectra of 280 nm and 380 nm was used as an UV source. The UV intensity at the skin surface was measured using a UV detector (GUVx-T1xGS5-LA2, Genicom Daejeon, Korea). The UV irradiation intensity was 1.0 mW/cm2 at 30 cm from the UV source. The cells were cultured up to 75-80% of culture dish, washed twice with PBS buffer, and irradiated with UV to treat test materials. Thereafter, the cells were continuously cultured in the absence of light until the next analysis. […]

MMP-3 [8] = test: Western blotting of MMP-3 protein in UV-irradiated hDF cells; type: cell-based, human; conditions: various concentrations
Procedure: as §5, §9

[9] = system: c-Jun N-terminal kinase (JNK); test: Western blotting of phosphorylated JNK and JNK in UV-irradiated hDF cells; type: cell-based, human
Procedure: as §5, §6
The total protein extracts from the samples were dissolved in lysis buffer (50 mM Tris (pH 7.4), 150 mM NaCl, 1 mM EGTA, 1% NP-40, 0.25% sodium deoxycholate, 1 mM PMSF, and phosphatase inhibitor mixture (Sigma, St. Louis, Mo., USA) and then boiled for 5 minutes. The dissolved proteins were quantitated using Bio-Rad Protein Assay Dye Reagent Concentrate (Bio-Rad Laboratories, Hercules, Calif., USA) and then separated by SDS-PAGE and transferred to a polyvinylidene difluoride (PVDF) membrane (Amersham Pharmacia Biotech, Piscataway, N.J., USA). Membranes were reacted with specific primary antibodies overnight at 4° C., and protein bands were then visualized using secondary antibodies coupled with horseradish peroxidase (HRP) and a chemiluminescence detection kit (Amersham Pharmacia Biotech). […]

[10] = system: extracellular signal-regulated kinase (Erk); test: Western blotting of phosphorylated Erk in UV-irradiated hDF cells; type: cell-based, human; conditions: 20 μM and 50 μM, 2 hours in the absence of light
Procedure: as §5, §9

| Compound | visual wrinkle grade [1] | wrinkle area in replicated images [1] | thickness of wrinkles of dorsal skin [1] | collagen breakdown in the dermis [2] | infiltration of inflammatory cells in the epidermis and upper dermis [2] | thickness of the epidermis [2] | level of ICAM-1 expression in the epidermis and upper dermis [3] | cell viability [4] | MMP-1 mRNA level (MMP-1 [5]) | MMP-3 mRNA level (MMP-3 [6]) | MMP-1 protein expression level (MMP-1 [7]) | MMP-3 protein expression level (MMP-3 [8]) | MAPK phosphorylation inhibition ([9]; 10 μM, 2 hours) | expression level of phosphorylated JNK ([9]; 20 μM and 50 μM, 2 hours in the absence of light) | basal JNK protein level ([9]; 2 hours in the absence of light) | expression level of phosphorylated Erk [10] |
| --- | --- | --- | --- | --- | --- | --- | --- | --- | --- | --- | --- | --- | --- | --- | --- | --- |
| pheophorbide a | wrinkles grades were lower | a decrease in the wrinkle area | remarkably reduced | less collagen breakdown occurred | reduced | A decrease in thickness | decreased | not affected | significant decrease | significant decrease | decreased in proportion to the amount treated | decreased in proportion to the amount treated | not as much as 20 μM and 50 μM | decreased | decreased in proportion to the amount of pheophorbide a | decreased |
| C=Cc1c(C)c2cc3nc(c4c5[n-]c(cc6nc(cc1[n-]2)C(C)=C6CC)c(C)c5C(=O)[C@@H]4C(=O)OC)[C@@H](CCC(=O)OC/C=C(\C)CCC[C@H](C)CCC[C@H](C)CCCC(C)C)[C@@H]3C.[Mg+2] [chlorophyll a] | wrinkles grades were lower | a decrease in the wrinkle area | remarkably reduced | less collagen breakdown occurred | reduced | A decrease in thickness | decreased | – | – | – | – | – | – | – | – | – |
